Two molecules from ChEMBL document CHEMBL1132746, “Biologically active oligodeoxyribonucleotides. Part 12: N2-methylation of 2'-deoxyguanosines enhances stability of parallel G-quadruplex and anti-HIV-1 activity” (Bioorg Med Chem Lett, 2000) can be followed below.

Common to all, as to conditions: Homo sapiens
The test system of test [1] is MT4. The experiment in a line: Concentration required to show cytotoxicity for MT-4 cells infected with HIV-1 IIIb strain. It is filed as functional.
In test [2] the test system is MT4. The experiment in a line: Tested for cytopathic effect of compound for MT-4 cells infected with HIV-1 IIIb strain. Type of test: functional, cell-based. In general terms: Cytopathic effects are the visible damage that an infection or toxin causes in cultured cells.
In test [3] the test system is MT4. The experiment in a line: Tested for cytopathic effect of compound for MT-4 cells infected with HIV-1 IIIb strain relative to R-95288 (1). It is filed as functional, cell-based.

As for `Cc1cn([C@H]2C[C@H](OP(=O)(O)O[C@H]3O[C@@H](n4cnc5c(=O)[nH]c(N)nc54)C[C@@H]3OP(=O)(O)OC[C@H]3O[C@@H](n4cnc5c(=O)[nH]c(N)nc54)C[C@@H]3OP(=O)(O)OC[C@H]3O[C@@H](n4cnc5c(=O)[nH]c(N)nc54)C[C@@H]3OP(=O)(O)OC[C@H]3O[C@@H](n4cnc5c4N=CNC5N)C[C@@H]3OP(=O)(O)OC[C@H]3O[C@@H](n4cnc5c(=O)[nH]c(N)nc54)C[C@@H]3OP(=O)(O)OCCO)[C@@H](COCc3ccc(OCc4ccccc4)c(OCc4ccccc4)c3)O2)c(=O)[nH]c1=O` (some centres undefined), in the test on MT4 [1], the 50% cytotoxic concentration (CC50) (commonly the concentration at which the toxic effect on the cells reaches its halfway point) was greater than 40 µM. Also, the midpoint of inhibition with MT4 [2], the IC50, lay at 1 µM.

The molecule `Cc1cn([C@H]2C[C@H](OP(=O)(O)O[C@H]3O[C@@H](n4cnc5c(O)nc(N)nc54)C[C@@H]3OP(=O)(O)OC[C@H]3O[C@@H](n4cnc5c(O)nc(N)nc54)C[C@@H]3OP(=O)(O)OC[C@H]3O[C@@H](n4cnc5c(O)nc(N)nc54)C[C@@H]3OP(=O)(O)O)[C@@H](COCc3ccc(OCc4ccccc4)c(OCc4ccccc4)c3)O2)c(=O)[nH]c1=O` displayed a CC50 with MT4 [1] greater than 40 µM. In addition, the IC50 (usually the concentration needed to halve the response being measured) in the test on MT4 [3] was determined as 43 µM.
